Entries after “also recorded” stand apart in the source; their conditions may differ. Where two headings read alike, the source gives them in different places.
Experiments:
[1] = system: incubated bovine corneal endothelial cell; experiment: cell-activating effect, MTT assay-based method; settings: for cell-activating effect (absorbance at 450 nm): 5 and 20 mM, 48 hrs incubation, vs control containing no HBA
Experimental: The D-form, D,L-form and L-form of D-3-HBA were dissolved in the DULBECCO's MEM salt incubation media at concentrations of 0 (control), 5 and 20 mM, respectively, and the resulting solutions were injected into a 24-well collagen-coated plate implanted (4×10^4 cell/ml) with a pre-incubated bovine corneal endothelial cell and then incubated for 48 hrs. After the incubation, 50 μl of cell-counting kit (product of DOJIN KAGAKU Ltd.) was added to each well to develop colors, and absorbance at 450 nm was measured by using each supernatant.

[2] = system: cultured bovine corneal endothelial cells damaged by ultrasound
Experimental: As an invasive model assuming a phacoemulsification and aspiration method used as a surgical method of cataract, incubated bovine corneal endothelial cells damaged by ultrasound were subjected to an experiment for examining the recovery of their barrier function.
Using the incubated bovine corneal endothelial cells damaged by ultrasound, the barrier function-recovering effects of D-3-HBA and oxyglutathione were subjected to an experiment in accordance with the following procedure.
The monolayer of cultured bovine corneal endothelial cells on a filter, which had been damaged by sonication to the cells at 92 W/cm^2 three course at intervals of 0.1 sec, was incubated in DULBECCO's MEM medium (with 10% of embryonic bovine serum) containing 20 mM of D-3-HBA or 0.3 mM of oxyglutathione.

corneas of Dutch rabbits = settings: 90 minutes irrigation
Experimental: Irrigating solution No.1 (Example) and solutions No.3, No.4 and No.5 (Comparative Examples) for testing were prepared by dissolving the predetermined amounts of the components listed in Table 2 and, finally, D-3-HBA so as to adjust the total amounts of the aqueous solutions to be 1 liter; adjusting the pHs of the solutions by diluted hydrochloric acid, and subjecting the solutions to aseptic treatment.
Dutch rabbits (male and female weighing 1.9 to 2.9 kg) were used for an experiment. Experiments were performed in rabbit, anesthetized with intramuscular xylazine hydrochloride (“celactal®”, a product Bayer AG.,) and ketamine hydrochloride (“ketalar®”, a product of Sankyo Co. Ltd,.) through intramuscular injection, a 3.2-mm-wide incision was made corneas limbusing a scalpel for ocular surgery. Subsequently, 18-gauge injection needles having a rounded tip were inserted in the anterior chambers through the incisions, and the irrigating solutions were allowed to irrigate at a flow rate of 10 ml/min for 90 minutes. After the irrigation, the incisions were sewed up once by a sewing needle with a suture. The corneal thicknesses were measured by the ultrasonic pachymeter used in Example 4 before and during the perfusion (at intervals of 30 minutes).

CC(O)CC(=O)O (racemic) [D,L-form, reference compound]
cell-activating effect (absorbance at 450 nm) [1]: did not show a significant difference

C[C@@H](O)CC(=O)[O-].[Na+] [Solution D-3-HBA, sodium D-3-hydroxy butyrate]
cell-activating effect (absorbance at 450 nm) [1]: the most active at any concentrations
cell-activating effect (absorbance at 450 nm) ([1]; listed as D-form): activity is obtained
optimum concentration for cell-activating effect ([1]; tested at 5 and 20 mM, 48 hrs): 20 mM
recovery of the barrier function ([2]; 20 mM in MEM medium after sonication damage): quick recovery effect
electrical resistance value of the endothelial layer ([2]; 20 mM in MEM medium, vs MEM with 0.3 mM oxyglutathione and MEM alone): closer to the value before the irradiation of ultrasound at any observation time
effect of keeping the change in the corneal thickness small (corneas of Dutch rabbits; bicarbonate ions added to the irrigating solution (FIG. 5)): significant
effect of keeping the change in the corneal thickness small (corneas of Dutch rabbits; bicarbonate ions not added to the irrigating solution (FIG. 6)): not significant

C[C@H](O)CC(=O)O [L-form, reference compound]
cell-activating effect (absorbance at 450 nm) [1]: hardly obtained; also recorded: did not show a significant difference in activity at any concentrations
